# According to patent publication US20160046592A1, “PHARMACEUTICAL COMPOSITION FOR THE TREATMENT OF DIABETES” (Ajinomoto Co., Inc., priority 2013, published 2016):
# Where a name gives a salt, the structure may show the parent alone.
# Target: T1, human GYS1 (glycogen synthase) (Homo sapiens, UniProt P13807)
# T1 construct: made in house; host or cells: HEK293T
# T1 sequence (P13807 1-737): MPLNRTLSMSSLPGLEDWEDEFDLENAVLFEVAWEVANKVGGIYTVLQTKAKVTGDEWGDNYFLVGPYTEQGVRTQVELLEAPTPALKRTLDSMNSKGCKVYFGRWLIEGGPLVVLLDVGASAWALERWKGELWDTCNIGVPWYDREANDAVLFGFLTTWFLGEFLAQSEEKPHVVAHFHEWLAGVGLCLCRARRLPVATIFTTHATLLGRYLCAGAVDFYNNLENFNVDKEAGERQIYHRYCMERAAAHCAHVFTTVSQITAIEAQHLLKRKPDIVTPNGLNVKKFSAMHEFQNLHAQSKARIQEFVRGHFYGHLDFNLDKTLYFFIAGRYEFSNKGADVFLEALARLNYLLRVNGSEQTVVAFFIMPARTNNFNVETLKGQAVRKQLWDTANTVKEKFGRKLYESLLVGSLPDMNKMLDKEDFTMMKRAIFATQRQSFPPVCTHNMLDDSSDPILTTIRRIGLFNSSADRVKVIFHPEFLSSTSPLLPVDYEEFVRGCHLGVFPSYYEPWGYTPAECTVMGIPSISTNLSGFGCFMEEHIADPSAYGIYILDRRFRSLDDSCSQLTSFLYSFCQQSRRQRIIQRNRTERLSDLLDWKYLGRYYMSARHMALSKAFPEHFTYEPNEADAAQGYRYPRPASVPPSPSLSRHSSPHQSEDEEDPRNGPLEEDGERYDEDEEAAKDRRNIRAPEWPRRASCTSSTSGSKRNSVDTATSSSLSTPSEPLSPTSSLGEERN
# Assay: Measurement of glycogen synthase activity
# Format: biochemical
# Details: concentration causing 50% increase in relative activity; 100% = compound of Example 1 of WO/2011/058154 at 10 μM; 10 mM Glucose-6-phosphate; 37° C. for 25 minutes (Examples 1 to 61 and 67 to 82) or 20 minutes (Examples 62 to 66); absorbance at 340 nm
# Protocol: A human GYS1 expression plasmid (pCDNA3.1(+)-hGYS1) was constructed by the following method. By using a human skeletal muscle cDNA of Human MTC Panel I (Takara Bio Inc., 636742) as a template, a human GYS1 gene was amplified by a PCR method using cloning primers (Forward Primer: ATGCCTTTAAACCGCAC, Reverse Primer: TTAGTTACGCTCCTCGC). By using the amplified human GYS1 sequence as a template, restriction enzyme sequences were added by a PCR method using sub-cloning primers (Forward Primer: […], and Reverse Primer: […]), and then the human GYS1 gene was introduced between Xho I and Xba I sites of pCDNA3.1(+) (Invitrogen, V790-20).
# Glycogen synthase was prepared by the following method. Human kidney-derived HEK293T cells were seeded in a dish (Thermo Fisher Scientific K.K., 168381) by using a 10% FBS-containing DMEM (Nacalai Tesque, Inc., 0845874) medium, and cultured overnight. Then, by using Lipofectamine LTX (Invitrogen, 15338-100), the cells were transfected with the human GYS1 expression vector according to the attached manual. After culturing under conditions of 37° C. and 5% CO2 for 2 days, the resultant was lysed in a lysis buffer (50 mM Tris-HCl (pH 8.0), 10 mM EDTA, 2 mM EGTA, 100 mM NaF, 1 mM PMSF, 1 mM DTT, and 1× Complete (Roche, 1873580)), homogenized, and then centrifuged at 16000×g at 4° C. for 15 minutes. The precipitated fraction re-dissolved by adding the lysis buffer was used as a glycogen synthase for evaluation.
# The glycogen synthase activity was measured by the following method. To a polystyrene 96-well plate, solutions each containing 30 mM glycylglycine (pH 7.3), 40 mM KCl, 20 mM MgCl2, 9.2% DMSO containing one of the test compounds at one of various concentrations, and 10 mM Glucose-6-phosphate (Sigma-Aldrich, G7879) were added at 12 μL/well.
# Next, a substrate solution containing 30 mM glycylglycine (pH 7.3), 4.3 mg/mL glycogen (Sigma-Aldrich, G8876), 21.6 mM UDP-glucose (Sigma-Aldrich, U4625), 21.6 mM phosphoenolpyruvic acid (Sigma-Aldrich, P0564), and 4.05 mM NADH (Sigma-Aldrich, N8129) was added at 18 μL/well.
# Moreover, an enzyme solution containing 50 mM Tris-HCl (pH 8.0), 27 mM DTT (NACALAI TESQUE, INC., 14128-04), 0.2 mg/mL bovine serum albumin, 0.17 mg/mL glycogen synthase, and 1.5 μL pyruvate kinase/lactate dehydrogenase solution (Sigma-Aldrich, P0294) was added at 18 μL/well to prepare reaction solutions. After the reaction solutions were incubated (at 37° C. for 25 minutes for Examples 1 to 61 and 67 to 82 or at 37° C. for 20 minutes for Examples 62 to 66), the absorbance at 340 nm was measured by using Benchmark Plus (Bio-Rad Laboratories, Inc.).
# The activity of each test compound was calculated by the following method. The absorbance at 340 nm of the reaction solution containing the compound and DMSO was subtracted from the absorbance at 340 nm of a reaction solution not containing the compound but containing only DMSO to calculate the change (ΔA340) in absorbance. The relative activity (%) of the test compound at each of the various concentrations was calculated, where the ΔA340 of a reaction solution containing the compound of Example 1 of WO/2011/058154 at a final concentration of 10 μM was taken as 100%. EC50 representing the concentration of the compound at which an increase in the relative activity by 50% was caused was calculated using XLfit (idbs).
row,SMILES,EC50
1,"CSc1cc(F)c(F)cc1-c1ccc(OCc2cccc(C(=O)N(CC(=O)O)Cc3ccncc3)c2)cc1 [Example 19, 2-[[3-[[4-(4,5-Difluoro-2-methylsulfanyl-phenyl)phenoxy]methyl]benzoyl]-(4-pyridylmethyl)amino]acetic Acid Trifluoroacetate]",0.0034 µM
2,"CSc1cc(F)c(F)cc1-c1ccc(OCc2cccc(C(=O)N(CC(=O)O)Cc3ccccn3)c2)cc1 [Example 20, 2-[[3-[[4-(4,5-Difluoro-2-methylsulfanyl-phenyl)phenoxy]methyl]benzoyl]-(2-pyridylmethyl)amino]acetic Acid Trifluoroacetate]",0.0065 µM
3,"CSc1cc(F)c(F)cc1-c1ccc(OCc2cccc(C(=O)N(CCC(C)O)CC(=O)O)c2)cc1 (centres unmarked) [Example 21, 2-[[3-[[4-(4,5-Difluoro-2-methylsulfanyl-phenyl)phenoxy]methyl]benzoyl]-(3-hydroxybutyl)amino]acetic Acid]",0.015 µM
4,"CSc1cc(F)c(F)cc1-c1ccc(OCc2cccc(C(=O)N(CC(=O)O)[C@@H](C)C(N)=O)c2)cc1 [Example 22, 2-[[(1S)-2-Amino-1-methyl-2-oxo-ethyl]-[3-[[4-(4,5-difluoro-2-methylsulfanyl-phenyl)phenoxy]methyl]benzoyl]amino]acetic Acid]",0.013 µM
5,"COC(C)(C)CN(CC(=O)O)C(=O)c1cccc(COc2ccc(-c3cc(F)c(F)cc3SC)cc2)c1 [Example 23, 2-[[3-[[4-(4,5-Difluoro-2-methylsulfanyl-phenyl)phenoxy]methyl]benzoyl]-(2-methoxy-2-methyl-propyl)amino]acetic Acid]",0.017 µM
6,"CCN(CC)CCN(CC(=O)O)C(=O)c1cccc(COc2ccc(-c3cc(F)c(F)cc3SC)cc2)c1 [Example 24, 2-[2-Diethylaminoethyl-[3-[[4-(4,5-difluoro-2-methylsulfanyl-phenyl)phenoxy]methyl]benzoyl]amino]acetic Acid Trifluoroacetate]",0.011 µM
7,"CSc1cc(F)c(F)cc1-c1ccc(OCc2cccc(C(=O)N(CCCN(C)C)CC(=O)O)c2)cc1 [Example 26, 2-[[3-[[4-(4,5-Difluoro-2-methylsulfanyl-phenyl)phenoxy]methyl]benzoyl]-[3-(dimethylamino)propyl]amino]acetic Acid Trifluoroacetate]",0.014 µM
8,"CSc1cc(F)c(F)cc1-c1ccc(OCc2cccc(C(=O)N3C[C@H](O)C[C@H]3C(=O)O)c2)cc1 [Example 29, (2S,4R)-1-[3-[[4-(4,5-Difluoro-2-methylsulfanyl-phenyl)phenoxy]methyl]benzoyl]-4-hydroxy-pyrrolidine-2-carboxylic Acid]",0.019 µM
9,"CSc1cc(F)c(F)cc1-c1ccc(OCc2cccc(C(=O)N(CCS(C)(=O)=O)CC(=O)O)c2)cc1 [Example 31, 2-[[3-[[4-(4,5-Difluoro-2-methylsulfanyl-phenyl)phenoxy]methyl]benzoyl]-(2-methylsulfonylethyl)amino]acetic Acid]",0.018 µM
10,"CSc1cc(F)c(F)cc1-c1ccc(OCc2cccc(C(=O)N(CCCS(C)(=O)=O)CC(=O)O)c2)cc1 [Example 32, 2-[[3-[[4-(4,5-Difluoro-2-methylsulfanyl-phenyl)phenoxy]methyl]benzoyl]-(3-methylsulfonylpropyl)amino]acetic Acid]",0.02 µM

# More lines, in order of falling EC50, values ahead:
row,EC50,SMILES
1,0.024 µM,"CSc1cc(F)c(F)cc1-c1ccc(OCc2cccc(C(=O)N(CC(=O)O)CC3CCOCC3)c2)cc1 [Example 34, 2-[[3-[[4-(4,5-Difluoro-2-methylsulfanyl-phenyl)phenoxy]methyl]benzoyl]-(tetrahydropyran-4-ylmethyl)amino]acetic Acid]"
2,0.021 µM,"CSc1cc(F)c(F)cc1-c1ccc(OCc2cccc(C(=O)N(CC(=O)O)C3CCNCC3)c2)cc1 [Example 36, 2-[[3-[[4-(4,5-Difluoro-2-methylsulfanyl-phenyl)phenoxy]methyl]benzoyl]-(4-piperidyl)amino]acetic Acid Trifluoroacetate]"
3,0.019 µM,"CSc1cc(F)c(F)cc1-c1ccc(OCc2cccc(C(=O)N(CC(=O)O)CC3CCNCC3)c2)cc1 [Example 35, 2-[[3-[[4-(4,5-Difluoro-2-methylsulfanyl-phenyl)phenoxy]methyl]benzoyl]-(4-piperidylmethyl)amino]acetic Acid Trifluoroacetate]"
4,0.016 µM,"CS(=O)(=O)NCCN(CC(=O)O)C(=O)c1cccc(COc2ccc(-c3cc(F)c(F)c4ccoc34)cc2)c1 [Example 16, 2-[[3-[[4-(4,5-Difluorobenzofuran-7-yl)phenoxy]methyl]benzoyl]-[2-(methanesulfonamido)ethyl]amino]acetic Acid]"
5,0.015 µM,"CSc1cc(F)c(F)cc1-c1ccc(OCc2cccc(C(=O)N(CC(=O)O)CC(=O)N3CCCC3)c2)cc1 [Example 25, 2-[[3-[[4-(4,5-Difluoro-2-methylsulfanyl-phenyl)phenoxy]methyl]benzoyl]-(2-oxo-2-pyrrolidin-1-yl-ethyl)amino]acetic Acid]"
6,0.015 µM,"COCCCN(CC(=O)O)C(=O)c1cccc(COc2ccc(-c3cc(F)c(F)cc3SC)cc2)c1 [Example 30, 2-[[3-[[4-(4,5-Difluoro-2-methylsulfanyl-phenyl)phenoxy]methyl]benzoyl]-(3-methoxypropyl)amino]acetic Acid]"
7,0.01 µM,"CSc1cc(F)c(F)cc1-c1ccc(OCc2cccc(C(=O)N(CCNS(C)(=O)=O)CC(=O)O)c2)cc1 [Example 17, 2-[[3-[[4-(4,5-Difluoro-2-methylsulfanyl-phenyl)phenoxy]methyl]benzoyl]-[2-(methanesulfonamido)ethyl]amino]acetic Acid]"
8,0.01 µM,"CSc1cc(F)c(F)cc1-c1ccc(OCc2cccc(C(=O)N(CC(=O)O)CC(=O)O)c2)cc1 [Example 27, 2-[Carboxymethyl-[3-[[4-(4,5-difluoro-2-methylsulfanyl-phenyl)phenoxy]methyl]benzoyl]amino]acetic Acid]"
9,0.01 µM,"CNCCN(CC(=O)O)C(=O)c1cccc(COc2ccc(-c3cc(F)c(F)cc3SC)cc2)c1 [Example 28, 2-[[3-[[4-(4,5-Difluoro-2-methylsulfanyl-phenyl)phenoxy]methyl]benzoyl]-[2-(methylamino)ethyl]amino]acetic Acid Trifluoroacetate]"
10,0.0073 µM,"CC(C)(O)CCN(CC(=O)O)C(=O)c1cccc(COc2ccc(-c3cc(F)c(F)c4ccoc34)cc2)c1 [Example 18, 2-[[3-[[4-(4,5-Difluorobenzofuran-7-yl)phenoxy]methyl]benzoyl]-(3-hydroxy-3-methyl-butyl)amino]acetic Acid]"
